Calls of active or inactive are those of the source. The calls are words filed in the database; no cut-off is given here. Where a SMILES comes first, the peptide text is derived from it. Bridges are numbered along the chain shown (N, C = ends).
Columns and labels:
Format in all cases: cell-based
Conditions in all cases: A-431
[1] = target: Epidermal growth factor receptor (Homo sapiens) (UniProt P00533); test: Reduction in EGF-induced dimerization of human EGFR in A431 cells at 0.01 to 1 uM preincubated for 30 mins before EGF challenge by SDS-PAGE
Chain of Epidermal growth factor receptor (Homo sapiens) (P00533 whole entry): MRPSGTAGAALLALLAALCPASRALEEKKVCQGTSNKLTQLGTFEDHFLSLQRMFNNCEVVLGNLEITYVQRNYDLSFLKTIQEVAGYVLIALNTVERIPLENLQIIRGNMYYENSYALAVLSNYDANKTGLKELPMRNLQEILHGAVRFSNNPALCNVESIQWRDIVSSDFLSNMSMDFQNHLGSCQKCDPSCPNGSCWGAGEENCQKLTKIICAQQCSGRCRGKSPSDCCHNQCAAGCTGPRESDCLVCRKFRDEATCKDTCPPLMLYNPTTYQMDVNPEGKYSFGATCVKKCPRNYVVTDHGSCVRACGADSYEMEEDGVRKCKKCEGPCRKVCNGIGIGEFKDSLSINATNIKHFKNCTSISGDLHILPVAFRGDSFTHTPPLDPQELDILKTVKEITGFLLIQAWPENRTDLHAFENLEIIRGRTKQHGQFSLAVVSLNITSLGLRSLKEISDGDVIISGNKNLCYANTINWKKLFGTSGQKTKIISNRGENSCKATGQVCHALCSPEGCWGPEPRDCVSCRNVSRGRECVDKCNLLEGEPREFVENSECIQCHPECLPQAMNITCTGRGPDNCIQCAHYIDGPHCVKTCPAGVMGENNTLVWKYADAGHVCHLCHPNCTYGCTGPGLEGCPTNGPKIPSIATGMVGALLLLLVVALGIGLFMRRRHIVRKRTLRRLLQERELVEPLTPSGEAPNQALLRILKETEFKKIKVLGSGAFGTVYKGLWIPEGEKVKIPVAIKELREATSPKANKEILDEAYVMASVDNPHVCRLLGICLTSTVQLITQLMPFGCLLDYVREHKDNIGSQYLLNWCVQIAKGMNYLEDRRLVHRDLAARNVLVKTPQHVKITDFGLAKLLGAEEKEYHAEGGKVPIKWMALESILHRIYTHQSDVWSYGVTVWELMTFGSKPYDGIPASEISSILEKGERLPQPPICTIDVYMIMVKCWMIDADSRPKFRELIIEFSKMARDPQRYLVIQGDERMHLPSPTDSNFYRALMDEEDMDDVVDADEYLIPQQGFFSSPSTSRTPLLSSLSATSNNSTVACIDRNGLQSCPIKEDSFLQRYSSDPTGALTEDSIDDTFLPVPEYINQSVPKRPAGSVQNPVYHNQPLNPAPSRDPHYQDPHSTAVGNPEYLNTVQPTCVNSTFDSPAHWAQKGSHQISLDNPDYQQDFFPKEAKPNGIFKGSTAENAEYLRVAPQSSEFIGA

[2] = target: Epidermal growth factor receptor (Homo sapiens) (UniProt P00533); test: Inhibition of EGF-stimulated human EGFR in intact A431 cells assessed as suppression of residual autophosphorylation at 10 uM preincubated for 3 hrs before EGF challenge by SDS-PAGE relative to control
[3] = target: Epidermal growth factor receptor (Homo sapiens) (UniProt P00533); test: Reduction in EGF-induced dimerization of human EGFR in A431 cells preincubated for 30 mins before EGF challenge by SDS-PAGE
[4] = target: Epidermal growth factor receptor (Homo sapiens) (UniProt P00533); test: Inhibition of EGF-stimulated human EGFR in intact A431 cells assessed as suppression of residual autophosphorylation at 1 uM preincubated for 3 hrs before EGF challenge by SDS-PAGE relative to control
[5] = target: Epidermal growth factor receptor (Homo sapiens) (UniProt P00533); test: Reduction in EGF-induced dimerization of human EGFR in A431 cells at 1 uM preincubated for 30 mins before EGF challenge by SDS-PAGE relative to control; design: scale not given: the % may be the effect or the level left
[6] = target: Epidermal growth factor receptor (Homo sapiens) (UniProt P00533); test: Inhibition of EGF-stimulated human EGFR in intact A431 cells assessed as suppression of residual autophosphorylation at 0.1 uM preincubated for 3 hrs before EGF challenge by SDS-PAGE relative to control
[7] = target: Epidermal growth factor receptor (Homo sapiens) (UniProt P00533); test: Inhibition of EGF-induced dimerization of human EGFR in A431 cells at >1 uM preincubated for 30 mins before EGF challenge by SDS-PAGE

Row | Compound | Activity [1] | Activity [2] [%] | Activity [3] | Activity [4] [%] | Activity [5] [%] | Activity [6] [%] | Activity [7]
1 | CSCC[C@H](NC(=O)[C@H](CCC(N)=O)NC(=O)[C@H](Cc1ccc(O)cc1)NC(=O)[C@@H](NC(=O)[C@@H](NC(=O)[C@@H]1CCCN1C(=O)[C@H](CC(N)=O)NC(=O)[C@H](Cc1ccc(O)cc1)NC(=O)[C@@H](N)CS)[C@@H](C)O)[C@@H](C)O)C(=O)N[C@@H](CS)C(=O)O (H-CYNPTTYQMC-OH) | inactive | – | – | – | – | – | –
2 | CSCC[C@@H]1NC(=O)[C@H](CCC(N)=O)NC(=O)[C@H](Cc2ccc(O)cc2)NC(=O)[C@H]([C@@H](C)O)NC(=O)[C@H]([C@@H](C)O)NC(=O)[C@@H]2CCCN2C(=O)[C@H](CC(N)=O)NC(=O)[C@H](Cc2ccc(O)cc2)NC(=O)[C@@H](N)CSSC[C@@H](C(=O)O)NC1=O (H-CYNPTTYQMC-OH; disulfide 1-10) | – | 30 | Dose-dependent effect | 51 | < 80 | 61 | inactive
